Assay results published in US5672715A, “Herbicidal substituted 3-aryl-pyrazoles” (Monsanto Company, priority 1995, dated 1997).

What was measured:
Assay type in all cases: in vivo
Barnyardgrass [1] = assay: pre-emergence herbicide test; details: Echinochloa crus-galli, pre-emergence, 0.25 lb/A; read-out: % plant inhibition
Summary of the method: (§1)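 Pre-emergence soil treatment: seeds on compacted topsoil, cover layer dosed with test compound in organic solvent (e.g. acetone) or water. Greenhouse, subirrigated as needed, sometimes 1/4 inch overhead water right after treatment. Read-out ~14 d: % inhibition.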

Bedstraw Catchweed [2] = assay: pre-emergence herbicide test; details: Galium aparine, pre-emergence, 0.25 lb/A; read-out: % plant inhibition
Summary of the method: as §1

Birdseye Speedwell [3] = assay: pre-emergence herbicide test; details: pre-emergence, 0.25 lb/A; read-out: % plant inhibition
Summary of the method: as §1

Blackgrass [4] = assay: pre-emergence herbicide test; details: Alopecurus myosuroides, pre-emergence, 0.25 lb/A; read-out: % plant inhibition
Summary of the method: as §1

Cocklebur [5] = assay: pre-emergence herbicide test; details: Xanthium strumarium, pre-emergence, 0.25 lb/A; read-out: % plant inhibition
Summary of the method: as §1

Common Chickweed [6] = assay: pre-emergence herbicide test; details: pre-emergence, 0.25 lb/A; read-out: % plant inhibition
Summary of the method: as §1

Corn [7] = assay: pre-emergence herbicide test; details: Zea mays, pre-emergence, 0.25 lb/A; read-out: % plant inhibition
Summary of the method: as §1

Downy Brome [8] = assay: pre-emergence herbicide test; details: Bromus tectorum, pre-emergence, 0.25 lb/A; read-out: % plant inhibition
Summary of the method: as §1

Giant Foxtail [9] = assay: pre-emergence herbicide test; details: Setaria faberi, pre-emergence, 0.25 lb/A; read-out: % plant inhibition
Summary of the method: as §1

Green Foxtail [10] = assay: pre-emergence herbicide test; details: Setaria viridis, pre-emergence; 0.25 lb/A; read-out: % plant inhibition
Summary of the method: as §1

Morning Glory [11] = assay: pre-emergence herbicide test; details: Ipomoea, pre-emergence, 0.25 lb/A; read-out: % plant inhibition
Summary of the method: as §1

Rape [12] = assay: pre-emergence herbicide test; details: pre-emergence, 0.25 lb/A; read-out: % plant inhibition
Summary of the method: as §1

Seedling Johnsongrass [13] = assay: pre-emergence herbicide test; details: Sorghum halepense, pre-emergence, 0.25 lb/A; read-out: % plant inhibition
Summary of the method: as §1

Soybean [14] = assay: pre-emergence herbicide test; details: Glycine max, pre-emergence, 0.25 lb/A; read-out: % plant inhibition
Summary of the method: as §1

Velvetleaf [15] = assay: pre-emergence herbicide test; details: Abutilon theophrasti, pre-emergence, 0.25 lb/A; read-out: % plant inhibition
Summary of the method: as §1

Wheat [16] = assay: pre-emergence herbicide test; details: Triticum aestivum, pre-emergence, 0.25 lb/A; read-out: % plant inhibition
Summary of the method: as §1

Wild Oats [17] = assay: pre-emergence herbicide test; details: Avena fatua, pre-emergence, 0.25 lb/A; read-out: % plant inhibition
Summary of the method: as §1

Barnyardgrass [18] = assay: post-emergence herbicide test; details: Echinochloa crus-galli, post-emergence, 0.25 lb/A; read-out: % plant inhibition
Summary of the method: (§2)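 Seeds sown on compacted topsoil, covered, leveled; greenhouse, overhead or subirrigation. Plants 2–3 wk old → atomizer spray, 170.3 kPa, 1870 L/Ha, ~0.4% v/v emulsifier. Readout: % inhibition.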

Bedstraw Catchweed [19] = assay: post-emergence herbicide test; details: Galium aparine, post-emergence, 0.25 lb/A; read-out: % plant inhibition
Summary of the method: as §2

Birdseye Speedwell [20] = assay: post-emergence herbicide test; details: post-emergence, 0.25 lb/A; read-out: % plant inhibition
Summary of the method: as §2

Blackgrass [21] = assay: post-emergence herbicide test; details: Alopecurus myosuroides, post-emergence, 0.25 lb/A; read-out: % plant inhibition
Summary of the method: as §2

Cocklebur [22] = assay: post-emergence herbicide test; details: Xanthium strumarium, post-emergence, 0.25 lb/A; read-out: % plant inhibition
Summary of the method: as §2

Common Chickweed [23] = assay: post-emergence herbicide test; details: post-emergence, 0.25 lb/A; read-out: % plant inhibition
Summary of the method: as §2

Corn [24] = assay: post-emergence herbicide test; details: Zea mays, post-emergence, 0.25 lb/A; read-out: % plant inhibition
Summary of the method: as §2

Downy Brome [25] = assay: post-emergence herbicide test; details: Bromus tectorum, post-emergence, 0.25 lb/A; read-out: % plant inhibition
Summary of the method: as §2

Giant Foxtail [26] = assay: post-emergence herbicide test; details: Setaria faberi, post-emergence, 0.25 lb/A; read-out: % plant inhibition
Summary of the method: as §2

Green Foxtail [27] = assay: post-emergence herbicide test; details: Setaria viridis, post-emergence, 0.25 lb/A; read-out: % plant inhibition
Summary of the method: as §2

Morning Glory [28] = assay: post-emergence herbicide test; details: Ipomoea, post-emergence, 0.25 lb/A; read-out: % plant inhibition
Summary of the method: as §2

Rape [29] = assay: post-emergence herbicide test; details: post-emergence, 0.25 lb/A; read-out: % plant inhibition
Summary of the method: as §2

Seedling Johnsongrass [30] = assay: post-emergence herbicide test; details: Sorghum halepense, post-emergence, 0.25 lb/A; read-out: % plant inhibition
Summary of the method: as §2

Soybean [31] = assay: post-emergence herbicide test; details: Glycine max, post-emergence, 0.25 lb/A; read-out: % plant inhibition
Summary of the method: as §2

Velvetleaf [32] = assay: post-emergence herbicide test; details: Abutilon theophrasti, post-emergence, 0.25 lb/A; read-out: % plant inhibition
Summary of the method: as §2

Wheat [33] = assay: post-emergence herbicide test; details: Triticum aestivum, post-emergence, 0.25 lb/A; read-out: % plant inhibition
Summary of the method: as §2

Wild Oats [34] = assay: post-emergence herbicide test; details: Avena fatua, post-emergence, 0.25 lb/A; read-out: % plant inhibition
Summary of the method: as §2

Row | Structure (SMILES) | inhibition at 280.212 g/ha (Barnyardgrass [1]) [%] | inhibition at 280.212 g/ha (Bedstraw Catchweed [2]) [%] | inhibition at 280.212 g/ha (Birdseye Speedwell [3]) [%] | inhibition at 280.212 g/ha (Blackgrass [4]) [%] | inhibition at 280.212 g/ha (Cocklebur [5]) [%] | inhibition at 280.212 g/ha (Common Chickweed [6]) [%] | inhibition at 280.212 g/ha (Corn [7]) [%] | inhibition at 280.212 g/ha (Downy Brome [8]) [%] | inhibition at 280.212 g/ha (Giant Foxtail [9]) [%] | inhibition at 280.212 g/ha (Green Foxtail [10]) [%] | inhibition at 280.212 g/ha (Morning Glory [11]) [%] | inhibition at 280.212 g/ha (Rape [12]) [%] | inhibition at 280.212 g/ha (Seedling Johnsongrass [13]) [%] | inhibition at 280.212 g/ha (Soybean [14]) [%] | inhibition at 280.212 g/ha (Velvetleaf [15]) [%] | inhibition at 280.212 g/ha (Wheat [16]) [%] | inhibition at 280.212 g/ha (Wild Oats [17]) [%] | inhibition at 280.212 g/ha (Barnyardgrass [18]) [%] | inhibition at 280.212 g/ha (Bedstraw Catchweed [19]) [%] | inhibition at 280.212 g/ha (Birdseye Speedwell [20]) [%] | also measured
1 | COCCOC(=O)c1cc(-c2nn(C)c(C(F)(F)F)c2C)c(F)cc1Cl [Compound 56] | 100 | 90 | 100 | 75 | 20 | 95 | 0 | 100 | 90 | 100 | 80 | 5 | 50 | 0 | 100 | 5 | 55 | 50 | 98 | 100 | inhibition at 280.212 g/ha (Blackgrass [21]): 60%; inhibition at 280.212 g/ha (Cocklebur [22]): 99%; inhibition at 280.212 g/ha (Common Chickweed [23]): 90%; inhibition at 280.212 g/ha (Corn [24]): 35%; inhibition at 280.212 g/ha (Downy Brome [25]): 85%; inhibition at 280.212 g/ha (Giant Foxtail [26]): 100%; inhibition at 280.212 g/ha (Green Foxtail [27]): 98%; inhibition at 280.212 g/ha (Morning Glory [28]): 80%; inhibition at 280.212 g/ha (Rape [29]): 98%; inhibition at 280.212 g/ha (Seedling Johnsongrass [30]): 95%; inhibition at 280.212 g/ha (Soybean [31]): 90%; inhibition at 280.212 g/ha (Velvetleaf [32]): 100%; inhibition at 280.212 g/ha (Wheat [33]): 16%; inhibition at 280.212 g/ha (Wild Oats [34]): 80%
2 | Cc1c(-c2cc(C(=O)OCc3ccco3)c(Cl)cc2F)nn(C)c1C(F)(F)F [Compound 57] | 50 | 80 | 60 | 15 | 10 | 20 | 0 | 20 | 10 | 85 | 90 | 0 | 15 | 0 | 90 | 0 | 5 | 35 | 40 | 100 | inhibition at 280.212 g/ha (Blackgrass [21]): 15%; inhibition at 280.212 g/ha (Cocklebur [22]): 85%; inhibition at 280.212 g/ha (Common Chickweed [23]): 55%; inhibition at 280.212 g/ha (Corn [24]): 3%; inhibition at 280.212 g/ha (Downy Brome [25]): 15%; inhibition at 280.212 g/ha (Giant Foxtail [26]): 15%; inhibition at 280.212 g/ha (Green Foxtail [27]): 40%; inhibition at 280.212 g/ha (Morning Glory [28]): 50%; inhibition at 280.212 g/ha (Rape [29]): 15%; inhibition at 280.212 g/ha (Seedling Johnsongrass [30]): 35%; inhibition at 280.212 g/ha (Soybean [31]): 17%; inhibition at 280.212 g/ha (Velvetleaf [32]): 100%; inhibition at 280.212 g/ha (Wheat [33]): 8%; inhibition at 280.212 g/ha (Wild Oats [34]): 25%
3 | CCC(C)OC(=O)c1cc(-c2nn(C)c(C(F)(F)F)c2C)c(F)cc1Cl (stereo not drawn) [Compound 58] | 100 | 95 | 100 | 95 | 75 | 100 | 20 | 100 | 100 | 100 | 100 | 50 | 100 | 25 | 100 | 5 | 75 | 85 | 90 | 100 | inhibition at 280.212 g/ha (Blackgrass [21]): 80%; inhibition at 280.212 g/ha (Cocklebur [22]): 99%; inhibition at 280.212 g/ha (Common Chickweed [23]): 95%; inhibition at 280.212 g/ha (Corn [24]): 20%; inhibition at 280.212 g/ha (Downy Brome [25]): 85%; inhibition at 280.212 g/ha (Giant Foxtail [26]): 95%; inhibition at 280.212 g/ha (Green Foxtail [27]): 85%; inhibition at 280.212 g/ha (Morning Glory [28]): 100%; inhibition at 280.212 g/ha (Rape [29]): 65%; inhibition at 280.212 g/ha (Seedling Johnsongrass [30]): 95%; inhibition at 280.212 g/ha (Soybean [31]): 85%; inhibition at 280.212 g/ha (Velvetleaf [32]): 100%; inhibition at 280.212 g/ha (Wheat [33]): 18%; inhibition at 280.212 g/ha (Wild Oats [34]): 85%
